Measurements reported in article PMC3945162 (Psychopharmacology, 2013).
Values joined by “and” are separate entries in the source; they are usually repeats but may differ in a detail not shown here. Equal entries are not always repeated. Where two headings read alike, the source gives them in different places.

Tests used:
Male Swiss–Webster mice = test: Locomotor activity; type: in vivo, mouse
[1] = tested on: rats trained to discriminate DMT (5 mg/kg) from saline; type: in vivo, rat; settings: for Dose(s) that decreased response rate: rat, in vivo
[2] = tested on: rats trained to discriminate DOM (0.5 mg/kg) from saline; type: in vivo, rat; settings: for Maximum %DAR (drug-appropriate responding): i.p., at dose of maximum DAR
[3] = tested on: rats trained to discriminate LSD (0.1 mg/kg) from saline; type: in vivo, rat; settings: for Rate of responding at dose of maximum DAR / Maximum %DAR (drug-appropriate responding): LSD-trained rats; for Maximum %DAR (drug-appropriate responding): i.p., at dose of maximum DAR
[4] = tested on: rats trained to discriminate MDMA (1.5 mg/kg) from saline; type: in vivo, rat; settings: for Rate of responding at dose of maximum DAR / Maximum %DAR (drug-appropriate responding): MDMA-trained rats; for Maximum %DAR (drug-appropriate responding): i.p., at dose of maximum DAR; for Dose(s) that decreased response rate: rat, in vivo
[5] = tested on: rats trained to discriminate METH (1 mg/kg) from saline; type: in vivo, rat
Male Sprague-Dawley rats = test: Adverse effects observed during drug discrimination test sessions; type: in vivo, rat; settings: 25 mg/kg i.p.
human 5-HT1A receptor [6] = target: T1, human 5-HT1A receptor (Homo sapiens, UniProt P08908); test: [3H]8-OH-DPAT binding, HEK-5-HT1A
T1 sequence (P08908 1-422): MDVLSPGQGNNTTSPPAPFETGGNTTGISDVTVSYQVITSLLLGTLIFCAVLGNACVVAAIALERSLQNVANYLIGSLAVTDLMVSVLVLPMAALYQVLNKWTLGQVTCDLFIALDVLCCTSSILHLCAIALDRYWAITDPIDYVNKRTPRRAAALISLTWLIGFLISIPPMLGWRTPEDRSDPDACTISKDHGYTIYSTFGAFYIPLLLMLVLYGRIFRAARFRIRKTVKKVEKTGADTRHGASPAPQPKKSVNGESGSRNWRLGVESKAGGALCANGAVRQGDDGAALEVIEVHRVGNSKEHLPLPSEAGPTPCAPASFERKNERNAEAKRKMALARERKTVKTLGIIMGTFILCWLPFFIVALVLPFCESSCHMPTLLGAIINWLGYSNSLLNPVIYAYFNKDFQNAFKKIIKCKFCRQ

human 5-HT1A receptor [7] = target: T1, human 5-HT1A receptor; test: [35S]GTPγS binding functional assay, HEK-5-HT1A; type: biochemical; settings: for Emax: read-out: 5-HT1A Function [35S]GTPγS Binding % maximal effect
human 5-HT2A receptor [8] = target: T2, human 5-HT2A receptor (Homo sapiens, UniProt P28223); test: [125I]DOI binding, HEK-5-HT2A cells
human 5-HT2A receptor [9] = target: T2, human 5-HT2A receptor; test: [3H]AA release from HEK-5-HT2A cells; type: cell-based; settings: for Emax: read-out: 5-HT2A Function [3H]AA release % maximal effect
human 5-HT2A receptor [10] = target: T2, human 5-HT2A receptor; test: IP-1 formation, HEK-5-HT2A cells; type: cell-based; settings: for Emax: read-out: 5-HT2A Function IP-1 formation % maximal effect
human 5-HT2C receptor [11] = target: T3, human 5-HT2C receptor (Homo sapiens, UniProt P28335); test: biochemical; type: binding
T3 sequence (P28335 33-458): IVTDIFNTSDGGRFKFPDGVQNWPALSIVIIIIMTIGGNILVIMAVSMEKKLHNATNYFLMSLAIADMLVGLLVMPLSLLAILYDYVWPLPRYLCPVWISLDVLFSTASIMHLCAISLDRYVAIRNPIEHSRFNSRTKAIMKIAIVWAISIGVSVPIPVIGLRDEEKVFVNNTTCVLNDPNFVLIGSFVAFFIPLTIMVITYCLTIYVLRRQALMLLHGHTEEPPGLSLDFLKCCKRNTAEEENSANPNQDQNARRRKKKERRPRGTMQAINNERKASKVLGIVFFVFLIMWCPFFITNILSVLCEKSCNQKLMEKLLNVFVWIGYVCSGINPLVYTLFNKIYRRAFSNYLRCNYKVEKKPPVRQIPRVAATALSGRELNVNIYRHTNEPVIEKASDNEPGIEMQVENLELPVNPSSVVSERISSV

human 5-HT2C receptor [12] = target: T3, human 5-HT2C receptor; test: cell-based; settings: for Emax: read-out: 5-HT2C Function IP-formation % maximal effect
hDAT [13] = target: T4, hDAT (Homo sapiens, UniProt Q01959); test: [125I]RTI-55 binding, HEK-hDAT cells
hDAT [14] = target: T4, hDAT; test: [3H]Dopamine uptake, HEK-hDAT cells; type: cell-based
hDAT [15] = target: T4, hDAT; test: [3H]Dopamine release, HEK-hDAT cells; type: cell-based; settings: HEK-hDAT cells
hSERT [16] = target: T5, hSERT (Homo sapiens, UniProt P31645); test: [125I]RTI-55 binding, HEK-hSERT cells
hSERT [17] = target: T5, hSERT; test: [3H]Serotonin uptake, HEK-hSERT cells; type: cell-based
hSERT [18] = target: T5, hSERT; test: [3H]Serotonin release, HEK-hSERT cells; type: cell-based
hNET [19] = target: T6, hNET (Homo sapiens, UniProt P23975); test: biochemical; type: binding
hNET [20] = target: T6, hNET; test: cell-based
hNET [21] = target: T6, hNET; test: cell-based; remark: listed apart in the source
[22] = DMT-trained rats, 15 min pretreatment
[23] = METH-trained rats, 15 min pretreatment

T5 sequence (P31645 whole entry): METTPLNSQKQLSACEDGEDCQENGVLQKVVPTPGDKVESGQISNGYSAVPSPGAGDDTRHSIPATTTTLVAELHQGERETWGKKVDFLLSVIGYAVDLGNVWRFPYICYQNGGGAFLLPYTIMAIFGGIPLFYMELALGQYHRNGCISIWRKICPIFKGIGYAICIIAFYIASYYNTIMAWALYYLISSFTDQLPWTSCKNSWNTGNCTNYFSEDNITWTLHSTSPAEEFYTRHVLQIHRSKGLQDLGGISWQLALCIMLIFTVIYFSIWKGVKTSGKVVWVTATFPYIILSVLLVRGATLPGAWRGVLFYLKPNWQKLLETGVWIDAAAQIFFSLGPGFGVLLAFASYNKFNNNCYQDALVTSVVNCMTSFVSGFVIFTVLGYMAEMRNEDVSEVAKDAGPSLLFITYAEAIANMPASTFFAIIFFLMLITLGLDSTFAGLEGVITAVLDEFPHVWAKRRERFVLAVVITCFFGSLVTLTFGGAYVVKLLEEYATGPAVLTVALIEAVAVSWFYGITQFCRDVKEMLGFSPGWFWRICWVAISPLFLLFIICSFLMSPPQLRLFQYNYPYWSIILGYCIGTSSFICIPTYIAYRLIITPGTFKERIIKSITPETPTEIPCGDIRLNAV
T4 sequence (Q01959 whole entry): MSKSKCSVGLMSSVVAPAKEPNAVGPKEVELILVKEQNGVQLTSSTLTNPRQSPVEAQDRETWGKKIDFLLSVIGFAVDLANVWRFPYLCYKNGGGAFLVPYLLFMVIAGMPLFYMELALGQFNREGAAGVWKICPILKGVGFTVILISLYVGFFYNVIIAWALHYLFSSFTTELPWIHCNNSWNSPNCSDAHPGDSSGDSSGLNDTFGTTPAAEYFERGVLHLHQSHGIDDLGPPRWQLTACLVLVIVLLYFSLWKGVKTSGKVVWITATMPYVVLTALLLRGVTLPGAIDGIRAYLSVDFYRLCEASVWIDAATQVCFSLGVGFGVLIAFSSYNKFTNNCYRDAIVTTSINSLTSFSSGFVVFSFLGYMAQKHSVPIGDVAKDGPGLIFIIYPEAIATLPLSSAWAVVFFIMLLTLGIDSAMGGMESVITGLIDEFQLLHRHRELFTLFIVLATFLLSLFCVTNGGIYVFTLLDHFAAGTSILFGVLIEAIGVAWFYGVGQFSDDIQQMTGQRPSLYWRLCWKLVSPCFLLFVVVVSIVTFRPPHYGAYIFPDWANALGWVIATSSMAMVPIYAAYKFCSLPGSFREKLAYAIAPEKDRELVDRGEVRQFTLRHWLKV
T6 sequence (P23975 whole entry): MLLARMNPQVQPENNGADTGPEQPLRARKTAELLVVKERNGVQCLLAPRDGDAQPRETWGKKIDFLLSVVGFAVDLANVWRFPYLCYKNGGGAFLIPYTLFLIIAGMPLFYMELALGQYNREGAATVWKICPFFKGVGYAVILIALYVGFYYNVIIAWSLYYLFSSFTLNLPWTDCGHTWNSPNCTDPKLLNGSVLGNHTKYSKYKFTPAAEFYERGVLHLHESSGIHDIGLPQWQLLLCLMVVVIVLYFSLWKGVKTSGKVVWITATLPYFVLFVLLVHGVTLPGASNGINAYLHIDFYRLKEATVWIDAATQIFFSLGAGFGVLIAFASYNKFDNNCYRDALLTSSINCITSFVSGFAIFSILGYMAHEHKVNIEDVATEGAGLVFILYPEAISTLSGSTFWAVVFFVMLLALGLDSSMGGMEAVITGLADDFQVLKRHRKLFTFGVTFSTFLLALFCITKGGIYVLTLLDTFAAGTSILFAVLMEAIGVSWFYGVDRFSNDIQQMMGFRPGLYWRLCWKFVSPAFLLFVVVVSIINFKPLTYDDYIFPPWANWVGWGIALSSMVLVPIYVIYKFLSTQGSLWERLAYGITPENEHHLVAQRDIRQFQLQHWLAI
T2 sequence (P28223 whole entry): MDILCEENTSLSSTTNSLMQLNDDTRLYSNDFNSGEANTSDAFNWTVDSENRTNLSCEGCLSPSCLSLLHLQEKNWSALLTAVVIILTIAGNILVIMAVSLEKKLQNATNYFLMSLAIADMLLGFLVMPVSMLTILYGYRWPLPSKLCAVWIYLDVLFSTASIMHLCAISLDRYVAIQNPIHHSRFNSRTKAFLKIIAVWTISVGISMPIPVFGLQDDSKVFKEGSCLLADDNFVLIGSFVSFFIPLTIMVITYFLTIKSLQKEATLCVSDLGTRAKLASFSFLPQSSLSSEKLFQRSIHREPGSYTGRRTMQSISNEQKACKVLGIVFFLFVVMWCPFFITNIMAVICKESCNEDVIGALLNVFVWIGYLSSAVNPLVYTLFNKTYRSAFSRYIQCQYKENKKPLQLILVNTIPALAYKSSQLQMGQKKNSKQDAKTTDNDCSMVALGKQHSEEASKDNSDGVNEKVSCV

## COc1cc(CCN)c(OC)cc1Cl [2C-C, 2,5-dimethoxy-4-chlorophenethylamine]
Male Swiss–Webster mice; 100 mg/kg i.p., at 30 min
  Convulsions (mice affected/tested): 2/8
  Tremors (mice affected/tested): 6/8
Male Swiss–Webster mice; 100 mg/kg i.p., within 120 min
  Lethality (mice): 1/8
Male Swiss–Webster mice; mice, i.p.
  Onset of depressant effects (within, after injection): ≤ 10 min
[1]; [22]
  Rate of responding at dose of maximum DAR: 0.235±0.098 resp/s
[1]
  Dose(s) that decreased response rate: 10 mg/kg
[2]; 15 min pretreatment
  Rate of responding at dose of maximum DAR: 0.366±0.070 resp/s
  Maximum %DAR (drug-appropriate responding): 82±16 %
[3]; 15 min pretreatment
  Rate of responding at dose of maximum DAR: 0.200±0.079 resp/s
  Maximum %DAR (drug-appropriate responding): 75% and 75±25 ^2%
[3]; rat, in vivo
  Dose(s) that decreased response rate: 10 mg/kg
[4]; 15 min pretreatment
  Rate of responding at dose of maximum DAR: 0.244±0.086 resp/s
  Maximum %DAR (drug-appropriate responding): 89±11 %
[4]
  Dose(s) that decreased response rate: 2.5 mg/kg
[5]; [23]
  Rate of responding at dose of maximum DAR: 0.156±0.096 resp/s
[5]; rat, in vivo
  Dose(s) that decreased response rate: 25 mg/kg
Male Sprague-Dawley rats
  Reddening of the extremities (rats affected/tested): 3/3
  Salivation (rats affected/tested): 1/3
Human 5-HT1A receptor [6]
  Ki: 740 ± 170 nM
Human 5-HT1A receptor [7]
  EC50: > 10000 nM
  Emax: < 25%
Human 5-HT2A receptor [8]
  Ki: 5.47 ± 0.68 nM
Human 5-HT2A receptor [9]
  EC50: 13.9 ± 6.1 nM
  Emax: 64.2 ± 2.2%
Human 5-HT2A receptor [10]
  EC50: 40.1 ± 4.7 nM
  Emax: 102 ± 5.5%
Human 5-HT2C receptor [11]
  Ki: 5.4 ± 1.2 nM
Human 5-HT2C receptor [12]
  EC50: 24.2 ± 5.6 nM
  Emax: 93.5 ± 6.5%
hDAT [13]
  Ki: > 10000 nM
hDAT [14]
  IC50: > 10000 nM
hDAT [15]
  [3H]Dopamine release % METH maximal effect: ND Minimal
hSERT [16]
  Ki: > 10000 nM
hSERT [17]
  IC50: > 9600 nM
hSERT [18]
  [3H]Serotonin release % PCA maximal effect: ND Minimal
hNET [19]
  Ki: > 7600 nM
hNET [20]
  IC50: > 9500 nM
hNET [21]
  [3H]NE release % METH maximal effect: ND Minimal

## COc1cc(CCN)c(OC)cc1I [2C-I, 2,5-dimethoxy-4-iodophenethylamine]
Male Swiss–Webster mice; mice, i.p.
  Doses producing depression of locomotor activity: 3 to 30 mg/kg
  Duration of depressant effects: 30 to 60 min
  Onset of depressant effects (within, after injection): ≤ 10 min
[1]; [22]
  Rate of responding at dose of maximum DAR: 0.480±0.092 resp/s
[3]; 15 min pretreatment
  Rate of responding at dose of maximum DAR: 0.233±0.075 resp/s
  Maximum %DAR (drug-appropriate responding): 80±20 %
[4]; 15 min pretreatment
  Rate of responding at dose of maximum DAR: 0.453±0.169 resp/s
  Maximum %DAR (drug-appropriate responding): 65% and 65±21 ^1%
[4]
  Dose(s) that decreased response rate: 2.5 to 10 mg/kg
[5]; [23]
  Rate of responding at dose of maximum DAR: 0.447±0.058 resp/s
[5]; METH-trained rats, i.p., 15 min pretreatment, at dose of maximum DAR
  Maximum %DAR (drug-appropriate responding): 38% and 38±17 ^1%
Human 5-HT1A receptor [6]
  Ki: 970 ± 430 nM
Human 5-HT1A receptor [7]
  EC50: 4900 ± 2000 nM
  Emax: 102 ± 4.7%
Human 5-HT2A receptor [8]
  Ki: 9.3 ± 3.2 nM
Human 5-HT2A receptor [9]
  Emax: 32.5 ± 1.5%
Human 5-HT2A receptor [10]
  EC50: 7.9 ± 2.2 nM
  Emax: 82.4 ± 6.4%
Human 5-HT2C receptor [11]
  Ki: 10.2 ± 1.7 nM
Human 5-HT2C receptor [12]
  EC50: 2.8 ± 1 nM
  Emax: 79 ± 16%
hDAT [13]
  Ki: > 10000 nM
hDAT [14]
  IC50: > 9600 nM
hDAT [15]
  [3H]Dopamine release % METH maximal effect: ND Minimal
hSERT [16]
  Ki: 950 ± 440 nM
hSERT [17]
  IC50: 5600 ± 2100 nM
hSERT [18]
  [3H]Serotonin release % PCA maximal effect: ND Minimal
hNET [19]
  Ki: > 10000 nM
hNET [20]
  IC50: > 8200 nM
hNET [21]
  [3H]NE release % METH maximal effect: ND Minimal

## COc1cc(CC(C)N)c(OC)cc1Cl (centres unmarked) [DOC, 2,5-Dimethoxy-4-chloroamphetamine]
Male Swiss–Webster mice; mice, i.p.
  Duration of depressant effects: 30 to 80 min
  Onset of depressant effects (within, after injection): ≤ 10 min
[1]; [22]
  Rate of responding at dose of maximum DAR: 0.354±0.125 resp/s
[1]; DMT-trained rats, 60 min pretreatment
  Rate of responding at dose of maximum DAR: 0.777±0.095 resp/s
[1]; DMT-trained rats, i.p., 60 min pretreatment, at dose of maximum DAR
  Maximum %DAR (drug-appropriate responding): 83±17 %
[1]
  Dose(s) that decreased response rate: ≥ 1 mg/kg
[2]; 15 min pretreatment
  Rate of responding at dose of maximum DAR: 0.708±0.072 resp/s
  Maximum %DAR (drug-appropriate responding): 83±17 %
[2]; 60 min pretreatment
  Rate of responding at dose of maximum DAR: 0.493±0.058 resp/s
  Maximum %DAR (drug-appropriate responding): 87±13 %
[3]; 15 min pretreatment
  Rate of responding at dose of maximum DAR: 0.402±0.049 resp/s
  Maximum %DAR (drug-appropriate responding): 81±16 %
[3]; 60 min pretreatment
  Rate of responding at dose of maximum DAR: 0.410±0.139 resp/s
  Maximum %DAR (drug-appropriate responding): 95±3 %
[4]; 15 min pretreatment
  Rate of responding at dose of maximum DAR: 0.449±0.104 resp/s
[4]; 60 min pretreatment
  Rate of responding at dose of maximum DAR: 0.356±0.141 resp/s
  Maximum %DAR (drug-appropriate responding): 60% and 60±24 ^2%
[5]; [23]
  Rate of responding at dose of maximum DAR: 0.876±0.330 resp/s
[5]; METH-trained rats, 60 min pretreatment
  Rate of responding at dose of maximum DAR: 0.276±0.098 resp/s
Human 5-HT1A receptor [6]
  Ki: > 9200 nM
Human 5-HT1A receptor [7]
  EC50: > 10000 nM
  Emax: < 10%
Human 5-HT2A receptor [8]
  Ki: 4 ± 0.45 nM
Human 5-HT2A receptor [9]
  EC50: 2.91 ± 0.66 nM
  Emax: 81 ± 16%
Human 5-HT2A receptor [10]
  EC50: 10.5 ± 2.6 nM
  Emax: 102 ± 4.2%
Human 5-HT2C receptor [11]
  Ki: 3.57 ± 0.56 nM
Human 5-HT2C receptor [12]
  EC50: 14.6 ± 3 nM
  Emax: 97 ± 19%
hDAT [13]
  Ki: > 10000 nM
hDAT [14]
  IC50: > 10000 nM
hDAT [15]
  [3H]Dopamine release % METH maximal effect: ND Minimal
hSERT [16]
  Ki: > 10000 nM
hSERT [17]
  IC50: > 8600 nM
hSERT [18]
  [3H]Serotonin release % PCA maximal effect: ND Minimal
hNET [19]
  Ki: > 7700 nM
hNET [20]
  IC50: > 8400 nM
hNET [21]
  [3H]NE release % METH maximal effect: ND Minimal
